Laboratory results published in patent US9302999B2, “Substituted triazoles as herbicides” (E. I. DU PONT DE NEMOURS AND COMPANY, priority 2012, dated 2016).
Read-outs that look alike come from different tables or passages of the source.

Columns and labels:
Assay type in all cases: in vivo
[1] = test system: crabgrass, large (large crabgrass, Digitaria sanguinalis); assay: Test A pre-/postemergence: crabgrass, large; conditions: Digitaria sanguinalis, 240 h; for pest or weed control at 125 g/ha: 125 g ai/ha; for pest or weed control at 500 g/ha: 500 g ai/ha
In short: (§1)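 Seeds were sown in loam/sand blend and sprayed preemergence (directed soil spray) and, simultaneously, postemergence at 2–10 cm, one- to two-leaf stage, using compounds in non-phytotoxic solvent with surfactant. After ~10 days in greenhouse, injury was rated visually versus untreated controls, 0 (no effect) to 100 (complete control).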

[2] = test system: foxtail, giant (giant foxtail, Setaria faberii); assay: Test A pre-/postemergence: foxtail, giant; conditions: Setaria faberi, 240 h; for pest or weed control at 125 g/ha: 125 g ai/ha; for pest or weed control at 500 g/ha: 500 g ai/ha
In short: as §1

[3] = test system: velvetleaf (Abutilon theophrasti); assay: Test A pre-/postemergence: velvetleaf; conditions: Abutilon theophrasti, 240 h; for pest or weed control at 125 g/ha: 125 g ai/ha; for pest or weed control at 500 g/ha: 500 g ai/ha
In short: as §1

[4] = test system: wild oat (Avena fatua); assay: Test C pre-/postemergence: wild oat
In short: (§2)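 Visual injury scored 0–100 (100 = complete control) against untreated controls after 13–15 greenhouse days. Surfactant-containing solvent formulations applied either to soil after sowing (loam/sand) or over 1- to 4-leaf plants, 2–18 cm tall.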

[5] = test system: galium (catchweed bedstraw, Galium aparine); assay: Test C pre-/postemergence: galium
In short: as §2

[6] = test system: corn (Zea mays); assay: Test C pre-/postemergence: corn
In short: as §2

[7] = test system: johnsongrass (Sorghum halepense); assay: Test C pre-/postemergence: johnsongrass
In short: as §2

[8] = test system: kochia (Kochia scoparia); assay: Test C pre-/postemergence: kochia
In short: as §2

[9] = test system: lambsquarters (Chenopodium album); assay: Test C pre-/postemergence: lambsquarters
In short: as §2

[10] = test system: pigweed (Amaranthus retroflexus); assay: Test C pre-/postemergence: pigweed
In short: as §2

[11] = test system: soybean (Glycine max); assay: Test C pre-/postemergence: soybean
In short: as §2

[12] = test system: chickweed (common chickweed, Stellaria media); assay: Test C postemergence: chickweed; conditions: 31 g ai/ha, scale 0 to 100 (0 no effect, 100 complete control)
In short: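 Plants at the 1- to 4-leaf stage (2 to 18 cm tall), grown in pots of peat moss/vermiculite planting medium, received postemergence applications of the formulated test chemicals. After 13 to 15 days in a greenhouse, injury was scored visually versus controls from 0 (no effect) to 100 (complete control).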

[13] = Postemergence, 31 g ai/ha, scale 0 to 100 (0 no effect, 100 complete control)
[14] = Postemergence, 125 g ai/ha, scale 0 to 100, 0 no effect, 100 complete control
[15] = Postemergence, 250 g ai/ha, scale 0 to 100
[16] = Preemergence, 31 g ai/ha, scale of 0 to 100, 0 is no effect, 100 is complete control
[17] = Preemergence, 62 g ai/ha, scale of 0 to 100, 0 is no effect, 100 is complete control
[18] = Preemergence, 125 g ai/ha, scale 0 to 100, 0 no effect, 100 complete control
[19] = Preemergence, 250 g ai/ha, scale 0 to 100, 0 no effect, 100 complete control
[20] = Postemergence, 62 g ai/ha, scale 0 to 100 (0 no effect, 100 complete control)

## Cc1nn(-c2ccc(C(F)(F)F)cc2)nc1Cc1ccnc(C(F)(F)F)c1 [Compound 47, 4-[[5-methyl-2-[4-(trifluoromethyl)phenyl]-2H-1,2,3-triazol-4-yl]methyl]-2-(trifluoromethyl)pyridine]
[1]; post-emergence, Postemergence, 0 to 100 scale, 0 is no effect, 100 is complete control, read-out: Crabgrass, Large plant response rating
  pest or weed control at 125 g/ha: 80%
[1]; post-emergence, Postemergence, visual rating on 0 to 100 scale (0 no effect, 100 complete control), approximately ten days, read-out: Crabgrass, Large plant response rating
  pest or weed control at 500 g/ha: 90%
[1]; pre-emergence, Preemergence, 0 to 100 scale (0 no effect, 100 complete control), read-out: Plant response rating, Crabgrass, Large
  pest or weed control at 125 g/ha: 100%
[1]; pre-emergence, Preemergence, 0 to 100 scale, 0 is no effect, 100 is complete control, read-out: Plant response rating, Crabgrass, Large
  pest or weed control at 500 g/ha: 100%
[2]; post-emergence, Postemergence, 0 to 100 scale, 0 is no effect, 100 is complete control, read-out: Foxtail, Giant plant response rating
  pest or weed control at 125 g/ha: 80%
[2]; post-emergence, Postemergence, visual rating on 0 to 100 scale (0 no effect, 100 complete control), approximately ten days, read-out: Foxtail, Giant plant response rating
  pest or weed control at 500 g/ha: 90%
[2]; pre-emergence, Preemergence, 0 to 100 scale (0 no effect, 100 complete control), read-out: Plant response rating, Foxtail, Giant
  pest or weed control at 125 g/ha: 100%
[2]; pre-emergence, Preemergence, 0 to 100 scale, 0 is no effect, 100 is complete control, read-out: Plant response rating, Foxtail, Giant
  pest or weed control at 500 g/ha: 100%
[3]; post-emergence, Postemergence, 0 to 100 scale, 0 is no effect, 100 is complete control, read-out: Velvetleaf plant response rating
  pest or weed control at 125 g/ha: 100%
[3]; post-emergence, Postemergence, visual rating on 0 to 100 scale (0 no effect, 100 complete control), approximately ten days, read-out: Velvetleaf plant response rating
  pest or weed control at 500 g/ha: 100%
[3]; pre-emergence, Preemergence, 0 to 100 scale (0 no effect, 100 complete control), read-out: Plant response rating, Velvetleaf
  pest or weed control at 125 g/ha: 80%
[3]; pre-emergence, Preemergence, 0 to 100 scale, 0 is no effect, 100 is complete control, read-out: Plant response rating, Velvetleaf
  pest or weed control at 500 g/ha: 100%
[4]; [13]
  Plant response rating, Oat, Wild: 35
[4]; [14]
  Plant response rating, Oat, Wild: 85
[4]; [15]
  Plant response rating, Oat, Wild: 90
[4]; [16]
  Plant response rating, Oat, Wild: 80
[4]; [17]
  Plant response rating, Oat, Wild: 90
[4]; [18]
  Plant response rating, Oat, Wild: 90
[4]; [19]
  Plant response rating, Oat, Wild: 100
[5]; [13]
  Plant response rating, Galium: 80
[5]; [20]
  Plant response rating, Galium: 80
[5]; [14]
  Plant response rating, Galium: 95
[5]; [15]
  Plant response rating, Galium: 98
[5]; [16]
  Plant response rating, Galium: 85
[5]; [17]
  Plant response rating, Galium: 100
[5]; [18]
  Plant response rating, Galium: 100
[5]; [19]
  Plant response rating, Galium: 100
[6]; [13]
  Plant response rating, Corn: 5
[6]; [20]
  Plant response rating, Corn: 15
[6]; [14]
  Plant response rating, Corn: 15
[6]; [15]
  Plant response rating, Corn: 25
[6]; [16]
  Plant response rating, Corn: 0
[6]; Preemergence, 62 g ai/ha, scale 0 to 100, 0 no effect, 100 complete control
  Plant response rating, Corn: 5
[6]; [18]
  Plant response rating, Corn: 10
[6]; [19]
  Plant response rating, Corn: 40
[7]; [13]
  Plant response rating, Johnsongrass: 0
[7]; [20]
  Plant response rating, Johnsongrass: 10
[7]; [14]
  Plant response rating, Johnsongrass: 35
[7]; [15]
  Plant response rating, Johnsongrass: 50
[7]; [16]
  Plant response rating, Johnsongrass: 5
[7]; [17]
  Plant response rating, Johnsongrass: 10
[7]; [18]
  Plant response rating, Johnsongrass: 60
[7]; [19]
  Plant response rating, Johnsongrass: 95
[8]; [13]
  Plant response rating, Kochia: 65
[8]; [16]
  Plant response rating, Kochia: 85
[8]; [17]
  Plant response rating, Kochia: 90
[8]; [18]
  Plant response rating, Kochia: 98
[8]; [19]
  Plant response rating, Kochia: 98
[9]; [13]
  Plant response rating, Lambsquarters: 100
[9]; [16]
  Plant response rating, Lambsquarters: 100
[9]; [17]
  Plant response rating, Lambsquarters: 100
[9]; [18]
  Plant response rating, Lambsquarters: 100
[9]; [19]
  Plant response rating, Lambsquarters: 100
[10]; [13]
  Plant response rating, Pigweed: 100
[10]; [20]
  Plant response rating, Pigweed: 100
[10]; [14]
  Plant response rating, Pigweed: 100
[10]; [15]
  Plant response rating, Pigweed: 100
[10]; [16]
  Plant response rating, Pigweed: 100
[10]; [17]
  Plant response rating, Pigweed: 100
[10]; [18]
  Plant response rating, Pigweed: 100
[10]; [19]
  Plant response rating, Pigweed: 100
[11]; [13]
  Plant response rating, Soybean: 40
[11]; [20]
  Plant response rating, Soybean: 70
[11]; [14]
  Plant response rating, Soybean: 75
[11]; [15]
  Plant response rating, Soybean: 75
[11]; [16]
  Plant response rating, Soybean: 0
[11]; [17]
  Plant response rating, Soybean: 0
[11]; [18]
  Plant response rating, Soybean: 5
[11]; [19]
  Plant response rating, Soybean: 35
[12]
  Plant response rating, Chickweed: 80
